Data taken from ChEMBL document CHEMBL3526141, “Characterization of human liver enzymes involved in the biotransformation of boceprevir, a hepatitis C virus protease inhibitor” (Drug Metab Dispos, 2011).

Assays:
[1] = biological target: T1, Aldo-keto reductase family 1 member C3 (Homo sapiens, UniProt P42330); experiment: Drug metabolism in human recombinant […] HEK293 cells treated with 20 uM boceprevir assessed as 100 uM diazepam-mediated inhibition of AKR1C3-mediated metabolite formation after 120 mins in presence of NADPH by LC-MS/MS/FSA method; type: ADME, cell-based; set-up: interact cpd dose 100 uM; conditions: hek293, 2 h
T1 sequence (P42330 whole entry): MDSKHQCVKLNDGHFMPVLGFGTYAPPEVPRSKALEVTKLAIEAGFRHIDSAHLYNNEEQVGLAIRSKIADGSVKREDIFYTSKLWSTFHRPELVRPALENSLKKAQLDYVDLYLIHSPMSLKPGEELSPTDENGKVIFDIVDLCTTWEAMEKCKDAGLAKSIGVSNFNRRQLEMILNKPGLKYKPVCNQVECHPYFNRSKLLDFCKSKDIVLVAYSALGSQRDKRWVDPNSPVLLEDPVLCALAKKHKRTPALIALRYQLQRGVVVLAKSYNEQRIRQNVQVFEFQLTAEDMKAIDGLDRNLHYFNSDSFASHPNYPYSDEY

Liver cytosol [2] = experiment: Drug metabolism in human liver cytosol treated with 20 uM assessed as compound formation in presence of NADPH generating system by LC-MS/MS/FSA method; type: ADME
[3] = biological target: T2, Aldo-keto reductase family 1 member C2 (Homo sapiens, UniProt P52895); experiment: Drug metabolism in human recombinant AKR1C2 expressing HEK293 cells treated with 20 uM boceprevir assessed as 100 uM diazepam-mediated inhibition of AKR1C2-mediated metabolite formation after 120 mins in presence of NADPH by LC-MS/MS/FSA method; type: ADME, cell-based; set-up: interact cpd dose 100 uM; conditions: hek293, 2 h
T2 sequence (P52895 whole entry): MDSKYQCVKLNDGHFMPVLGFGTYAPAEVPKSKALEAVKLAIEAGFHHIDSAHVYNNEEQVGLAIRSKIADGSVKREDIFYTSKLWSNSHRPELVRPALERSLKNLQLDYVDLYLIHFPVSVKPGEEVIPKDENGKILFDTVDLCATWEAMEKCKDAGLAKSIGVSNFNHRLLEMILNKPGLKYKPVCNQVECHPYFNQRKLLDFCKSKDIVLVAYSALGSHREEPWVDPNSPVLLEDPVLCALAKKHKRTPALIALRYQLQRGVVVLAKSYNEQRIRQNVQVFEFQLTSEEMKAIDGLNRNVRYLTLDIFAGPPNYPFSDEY

[4] = biological target: T2, Aldo-keto reductase family 1 member C2; experiment: Drug metabolism in human recombinant AKR1C2 expressing HEK293 cells treated with 20 uM boceprevir assessed as 1 mM ibuprofen-mediated inhibition of AKR1C2-mediated metabolite formation after 120 mins in presence of NADPH by LC-MS/MS/FSA method; type: ADME, cell-based; set-up: interact cpd dose 1 mM; conditions: hek293, 2 h
[5] = (§1) Drug excretion in human feces; type: ADME; set-up: dosed compound name [14C]-SCH 534128
[6] = as §1; type: ADME; set-up: dosed compound name [14C]boceprevir
Liver cytosol [7] = experiment: (§2) Drug metabolism in human liver cytosol at 20 uM assessed as (1R,2S,5S)-N-((2S,3R)-4-amino-1-cyclobutyl-3-hydroxy-4-oxobutan-2-yl)-3-((S)-2-(3-tert-butylureido)-3,3-dimethylbutanoyl)-6,6-dimethyl-3-azabicyclo[3.1.0]hexane-2-carboxamide formation in presence of mefenamic acid by LC-MS/MS/FSA method; type: ADME
Liver cytosol [8] = experiment: as §2, with “formation at 20 uM after 60 mins” for “formation”, “co-incubation with ritonavir” for “mefenamic acid”; type: ADME; conditions: 1 h
[9] = biological target: T1, Aldo-keto reductase family 1 member C3; experiment: Activity of human recombinant AKR1C3 expressed in HEK293 cells assessed as ratio of Vmax to Km for (1R,2S,5S)-N-((2S,3R)-4-amino-1-cyclobutyl-3-hydroxy-4-oxobutan-2-yl)-3-((S)-2-(3-tert-butylureido)-3,3-dimethylbutanoyl)-6,6-dimethyl-3-azabicyclo[3.1.0]hexane-2-carboxamide formation per mg protein after 120 mins in presence of NADPH by LC-MS/MS/FSA method; type: ADME, cell-based; conditions: hek293, 2 h
Liver cytosol [10] = experiment: as §2, with “formation at 20 uM after 60 mins” for “formation”, “AKR inhibitor diazepam” for “mefenamic acid”; type: ADME; conditions: 1 h
[11] = Drug excretion in human feces assessed as oxidative metabolites level; type: ADME; set-up: dosed compound name [14C]boceprevir
[12] = Drug metabolism in human liver S9 fraction at 20 uM assessed as (1R,2S,5S)-N-((2S,3R)-4-amino-1-cyclobutyl-3-hydroxy-4-oxobutan-2-yl)-3-((S)-2-(3-tert-butylureido)-3,3-dimethylbutanoyl)-6,6-dimethyl-3-azabicyclo[3.1.0]hexane-2-carboxamide formation in presence of quercetin by LC-MS/MS/FSA method; type: ADME, subcellular; conditions: s9, 20 µM
Cytochrome P450 2J2 = biological target: T3, Cytochrome P450 2J2 (Homo sapiens, UniProt P51589); experiment: Drug metabolism assessed as human CYP2J2-mediated compound formation from 5 to 20 uM [14C]boceprevir after 120 mins by LC-MS/FSA method relative to total [14C]boceprevir; type: ADME; conditions: recombinant enzyme, 2 h
T3 sequence (P51589 whole entry): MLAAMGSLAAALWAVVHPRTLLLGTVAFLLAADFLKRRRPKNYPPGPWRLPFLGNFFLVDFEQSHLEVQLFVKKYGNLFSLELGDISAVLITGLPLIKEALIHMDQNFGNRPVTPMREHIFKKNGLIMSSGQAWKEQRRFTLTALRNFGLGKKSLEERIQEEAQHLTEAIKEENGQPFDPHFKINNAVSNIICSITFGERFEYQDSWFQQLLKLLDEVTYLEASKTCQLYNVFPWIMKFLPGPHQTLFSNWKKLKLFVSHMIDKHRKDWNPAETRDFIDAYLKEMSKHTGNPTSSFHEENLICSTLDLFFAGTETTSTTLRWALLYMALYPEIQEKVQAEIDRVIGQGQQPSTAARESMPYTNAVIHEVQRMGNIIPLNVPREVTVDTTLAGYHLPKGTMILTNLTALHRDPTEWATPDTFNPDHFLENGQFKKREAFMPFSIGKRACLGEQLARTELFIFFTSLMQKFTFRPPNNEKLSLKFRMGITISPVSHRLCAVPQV

Liver cytosol [13] = experiment: as §2, with “formation at 20 uM after 60 mins” for “formation”, “AKR inhibitor ibuprofen” for “mefenamic acid”; type: ADME; conditions: 1 h
Cytochrome P450 3A5 = Cytochrome P450 3A5 (Homo sapiens, UniProt P20815); experiment: Drug metabolism assessed as human CYP3A5-mediated compound formation from 5 uM [14C]boceprevir after 120 mins by LC-MS/FSA method relative to total [14C]boceprevir; type: ADME; conditions: recombinant enzyme, 2 h
Cytochrome P450 3A5, sequence (P20815 whole entry): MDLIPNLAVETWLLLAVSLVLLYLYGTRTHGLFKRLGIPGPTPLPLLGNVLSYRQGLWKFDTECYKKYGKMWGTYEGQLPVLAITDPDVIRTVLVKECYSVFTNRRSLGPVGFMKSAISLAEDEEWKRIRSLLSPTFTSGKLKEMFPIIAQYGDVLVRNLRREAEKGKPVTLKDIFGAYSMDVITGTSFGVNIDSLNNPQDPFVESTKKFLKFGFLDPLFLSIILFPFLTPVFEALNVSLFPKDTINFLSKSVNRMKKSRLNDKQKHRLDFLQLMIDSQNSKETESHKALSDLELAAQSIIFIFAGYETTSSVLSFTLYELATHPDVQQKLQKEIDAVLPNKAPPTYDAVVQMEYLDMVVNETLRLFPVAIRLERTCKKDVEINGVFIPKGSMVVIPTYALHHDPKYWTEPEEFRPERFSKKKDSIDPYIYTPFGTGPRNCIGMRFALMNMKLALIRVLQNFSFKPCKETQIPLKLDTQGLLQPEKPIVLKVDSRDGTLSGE

CC(C)(C)NC(=O)N[C@H](C(=O)N1C[C@H]2[C@@H]([C@H]1C(=O)N[C@@H](CC1CCC1)[C@@H](O)C(N)=O)C2(C)C)C(C)(C)C
inhibition (INH) [1]: 80%
Compound recovery (Liver cytosol [2]): 68%
inhibition (INH) [3]: > 89%
inhibition (INH) [4]: > 89%

CC(C)(C)NC(=O)N[C@H](C(=O)N1C[C@H]2[C@@H]([C@H]1C(=O)NC(CC1CCC1)C(=O)C(N)=O)C2(C)C)C(C)(C)C (stereo not given in full) [BOCEPREVIR]
Radiolabel recovery [5]: metabolite_not_detected
Radiolabel recovery [6]: 79%
Compound recovery (Liver cytosol [7]): metabolite_not_detected
Compound recovery (Liver cytosol [8]): metabolite_detected
Vmax/Km [9]: 14.67 µL/min
Compound recovery (Liver cytosol [10]): metabolite_not_detected
Radiolabel recovery [11]: 50%
Compound recovery [12]: metabolite_not_detected
Compound recovery (Cytochrome P450 2J2): metabolite_not_detected
Compound recovery (Liver cytosol [13]): metabolite_not_detected

CC(C)(C)NC(=O)N[C@H](C(=O)N1C[C@H]2[C@@H]([C@H]1C(=O)N[C@H](CC1CCC1)C(=O)C(N)=O)C2(C)C)C(C)(C)C
Compound recovery (Cytochrome P450 3A5): 2.19%
